From patent US11634390B2, “Agricultural chemicals” (GLOBACHEM NV, priority 2016, dated 2023)

Columns and labels:
Assay type in all cases: in vivo
[1] = test system: four weed species; test: Herbicidal screen, summary across the four weed species; conditions: summary in words, 12.5-100 g/ha
Experimental: (§1) Compounds were screened at four concentrations (100, 50, 25 and 12.5 g/ha) against four weed species (Stellaria media—Chickweed; Abutilon theophrasti—velvetleaf; Amaranthus retroflexus—common amaranthus; Echinochloa crus-galli—Barnyard grass) and maize as a crop species. Seed were sown in 12.5 cm diameter pots (20 per pot for the weed species and 5 for maize). Seedlings were sprayed with 2 ml of compound two weeks after sowing, with 2 ml water used as the control. Each treatment was replicated three times. Plants were maintained at 20° C. and assessed 10 days after treatment. The assessment was based on the % plant in each pot showing growth. The data is presented in Table 1 in which d represents no detected effect at this concentration; c represents a percentage increase in necrosis relative to the control of 0.1-50; b represents a percentage increase in necrosis of 50-80; and a represents a percentage increase in necrosis of 80-100.

[2] = test system: Echinochloa crus-galli; test: Herbicidal screen, post-emergence spray of seedlings in pots: Barnyard grass; parameters: key to percentage increase in necrosis relative to the control: no detected effect at this concentration; a percentage increase in necrosis relative to the control of 0.1-50; b: a percentage increase in necrosis of 50-80; a percentage increase in necrosis of 80-100; conditions: assessed 10 days after treatment; for pest or weed control at 12.5 g/ha / pest or weed control at 25 g/ha / pest or weed control at 50 g/ha / pest or weed control at 100 g/ha: Echinochloa crus-galli, post-emergence, 240 h, read-out: percentage increase in necrosis relative to the control
Experimental: as §1

[3] = test system: maize; test: Herbicidal screen, post-emergence spray of seedlings in pots: crop species; parameters: key to percentage increase in necrosis relative to the control: no detected effect at this concentration; a percentage increase in necrosis relative to the control of 0.1-50; b: a percentage increase in necrosis of 50-80; a percentage increase in necrosis of 80-100; conditions: assessed 10 days after treatment; for plant injury at 12.5 g/ha / plant injury at 25 g/ha / plant injury at 50 g/ha / plant injury at 100 g/ha: Zea mays, post-emergence, 240 h, read-out: percentage increase in necrosis relative to the control
Experimental: as §1

[4] = test system: Abutilon theophrasti; test: Herbicidal screen, post-emergence spray of seedlings in pots: velvetleaf; parameters: key to percentage increase in necrosis relative to the control: no detected effect at this concentration; a percentage increase in necrosis relative to the control of 0.1-50; b: a percentage increase in necrosis of 50-80; a percentage increase in necrosis of 80-100; conditions: assessed 10 days after treatment; for pest or weed control at 12.5 g/ha / pest or weed control at 25 g/ha / pest or weed control at 50 g/ha / pest or weed control at 100 g/ha: Abutilon theophrasti, post-emergence, 240 h, read-out: percentage increase in necrosis relative to the control
Experimental: as §1

[5] = test system: Amaranthus retroflexus; test: Herbicidal screen, post-emergence spray of seedlings in pots: common amaranthus; parameters: key to percentage increase in necrosis relative to the control: no detected effect at this concentration; a percentage increase in necrosis relative to the control of 0.1-50; b: a percentage increase in necrosis of 50-80; a percentage increase in necrosis of 80-100; conditions: assessed 10 days after treatment; for pest or weed control at 12.5 g/ha / pest or weed control at 25 g/ha / pest or weed control at 50 g/ha / pest or weed control at 100 g/ha: Amaranthus retroflexus, post-emergence, 240 h, read-out: percentage increase in necrosis relative to the control
Experimental: as §1

[6] = test system: Stellaria media; test: Herbicidal screen, post-emergence spray of seedlings in pots: Chickweed; parameters: key to percentage increase in necrosis relative to the control: no detected effect at this concentration; a percentage increase in necrosis relative to the control of 0.1-50; b: a percentage increase in necrosis of 50-80; a percentage increase in necrosis of 80-100; conditions: assessed 10 days after treatment; for pest or weed control at 12.5 g/ha / pest or weed control at 25 g/ha / pest or weed control at 50 g/ha / pest or weed control at 100 g/ha: Stellaria media, post-emergence, 240 h, read-out: percentage increase in necrosis relative to the control
Experimental: as §1

| SMILES | herbicidal activity against the weed species [1] | pest or weed control at 12.5 g/ha ([2]; 12.5 g/ha) [%] | pest or weed control at 25 g/ha ([2]; 25 g/ha) [%] | pest or weed control at 50 g/ha [2] [%] | pest or weed control at 100 g/ha [2] [%] | plant injury at 12.5 g/ha ([3]; 12.5 g/ha) [%] | plant injury at 25 g/ha ([3]; 25 g/ha) [%] | plant injury at 50 g/ha [3] [%] | plant injury at 100 g/ha [3] [%] | pest or weed control at 12.5 g/ha ([4]; 12.5 g/ha) [%] | pest or weed control at 25 g/ha [4] [%] | pest or weed control at 50 g/ha [4] [%] | pest or weed control at 100 g/ha [4] [%] | pest or weed control at 12.5 g/ha ([5]; 12.5 g/ha) [%] | pest or weed control at 25 g/ha ([5]; 25 g/ha) [%] | pest or weed control at 50 g/ha [5] [%] | pest or weed control at 100 g/ha [5] [%] | pest or weed control at 12.5 g/ha ([6]; 12.5 g/ha) [%] | pest or weed control at 25 g/ha ([6]; 25 g/ha) [%] | pest or weed control at 100 g/ha [6] [%] | also measured |
| --- | --- | --- | --- | --- | --- | --- | --- | --- | --- | --- | --- | --- | --- | --- | --- | --- | --- | --- | --- | --- | --- |
| Cl.Cn1c(C(F)(F)F)cc(=O)n(-c2cc(C(=O)NS(=O)(=O)C3CCNCC3)c(Cl)cc2F)c1=O [Example 2, 2-Chloro-4-fluoro-5-(3-methyl-2,6-dioxo-4-(trifluoromethyl)-3,6-dihydropyrimidin-1(2H)-yl)-N-(piperidin-4-ylsulfonyl)benzamide hydrochloride] | good activity across several of the weed species | 0.1 to 50 | 50 to 80 | 50 to 80 | 80 to 100 | 0.1 to 50 | 0.1 to 50 | 50 to 80 | 50 to 80 | 50 to 80 | 50 to 80 | 50 to 80 | 80 to 100 | 80 to 100 | 80 to 100 | 80 to 100 | 80 to 100 | 50 to 80 | 50 to 80 | 80 to 100 | pest or weed control at 50 g/ha ([6]; 50 g/ha): 50 to 80% |
| CN1CCC(S(=O)(=O)NC(=O)c2cc(-n3c(=O)cc(C(F)(F)F)n(C)c3=O)c(F)cc2Cl)C1.Cl (centres unmarked) [Example 5, 2-Chloro-4-fluoro-5-(3-methyl-2,6-dioxo-4-(trifluoromethyl)-3,6-dihydropyrimidin-1(2H)-yl)-N-((1-methylpyrrolidin-3-yl)sulfonyl)benzamide hydrochloride] | good activity across several of the weed species | 0.1 to 50 | 0.1 to 50 | 0.1 to 50 | 50 to 80 | 0.1 to 50 | 0.1 to 50 | 0.1 to 50 | 0.1 to 50 | 0.1 to 50 | 50 to 80 | 80 to 100 | 80 to 100 | 80 to 100 | 80 to 100 | 80 to 100 | 80 to 100 | 0.1 to 50 | 0.1 to 50 | 50 to 80 | pest or weed control at 50 g/ha ([6]; 50 g/ha): 50 to 80% |
| Cn1c(C(F)(F)F)cc(=O)n(-c2cc(C(=O)NS(=O)(=O)C3(C)CC3)c(Cl)cc2F)c1=O [Example 7, 2-Chloro-4-fluoro-5-(3-methyl-2,6-dioxo-4-(trifluoromethyl)-3,6-dihydropyrimidin-1(2H)-yl)-N-((1-methylcyclopropyl)sulfonyl)benzamide] | good activity across several of the weed species | 0.1 to 50 | 0.1 to 50 | 50 to 80 | 80 to 100 | 0.1 to 50 | 0.1 to 50 | 0.1 to 50 | 50 to 80 | 0.1 to 50 | 80 to 100 | 80 to 100 | 80 to 100 | 80 to 100 | 80 to 100 | 80 to 100 | 80 to 100 | 0.1 to 50 | 50 to 80 | 80 to 100 | pest or weed control at 50 g/ha ([6]; 50 g/ha): 50 to 80% |
| Cn1c(C(F)(F)F)cc(=O)n(-c2cc(C(=O)NS(=O)(=O)C3CCCC3)c(Cl)cc2F)c1=O [Example 13, 2-Chloro-N-(cyclopentylsulfonyl)-4-fluoro-5-(3-methyl-2,6-dioxo-4-(trifluoromethyl)-3,6-dihydropyrimidin-1(2H)-yl)benzamide] | good activity across several of the weed species | 0.1 to 50 | 0.1 to 50 | 0.1 to 50 | 0.1 to 50 | 0.1 to 50 | 0.1 to 50 | 0.1 to 50 | 0.1 to 50 | 0.1 to 50 | 50 to 80 | 50 to 80 | 80 to 100 | 50 to 80 | 50 to 80 | 80 to 100 | 80 to 100 | 0.1 to 50 | 0.1 to 50 | 0.1 to 50 | pest or weed control at 50 g/ha ([6]; 50 g/ha): 0.1 to 50% |
| Cn1c(C(F)(F)F)cc(=O)n(-c2cc(C(=O)NS(=O)(=O)C3CC3)ccc2F)c1=O [Example 15, N-(Cyclopropylsulfonyl)-4-fluoro-3-(3-methyl-2,6-dioxo-4-(trifluoromethyl)-3,6-dihydropyrimidin-1(2H)-yl)benzamide] |  |  |  | 0.1 to 50 | 0.1 to 50 |  |  | 0.1 to 50 | 0.1 to 50 |  | 0.1 to 50 | 50 to 80 | 50 to 80 |  |  | 50 to 80 | 50 to 80 |  |  | 0.1 to 50 | percentage increase in necrosis relative to the control ([2]; 12.5 g/ha): d; percentage increase in necrosis relative to the control ([2]; 25 g/ha): d; percentage increase in necrosis relative to the control ([3]; 12.5 g/ha): d; percentage increase in necrosis relative to the control ([3]; 25 g/ha): d; percentage increase in necrosis relative to the control ([4]; 12.5 g/ha): d; percentage increase in necrosis relative to the control ([5]; 12.5 g/ha): d; percentage increase in necrosis relative to the control ([5]; 25 g/ha): d; percentage increase in necrosis relative to the control ([6]; 12.5 g/ha): d; percentage increase in necrosis relative to the control ([6]; 25 g/ha): d; percentage increase in necrosis relative to the control ([6]; 50 g/ha): d |
